Assay results from ChEMBL document CHEMBL5500364, “Design, synthesis, and biological evaluation of some 2-(3-oxo-5,6-diphenyl-1,2,4-triazin-2(3H)-yl)-N-phenylacetamide hybrids as MTDLs for Alzheimer's disease therapy” (Eur J Med Chem, 2024).
The source made the active and inactive calls. No cut-off for these calls is given here.

Columns and labels:
[1] = Acute toxicity in Wistar rat assessed as effect on heart tissue at 500 to 1000 mg/kg, po administered for 14 days by histopathological analysis; type: organism-based; conditions: in vivo, 336 h, dose 500-1000 mg/kg, time 14 day
[2] = system: Rattus norvegicus; test: Reversal of amyloid beta (1 to 42 residues) induced cognitive impairment in Wistar rat assessed as decrease in BACE-1 level in CA1 region of hippocampus at 10 mg/kg, po pretreated with amyloid beta for 7 days followed by compound administration for 9 days and measured after 5 days by immuno histochemical analysis; type: functional, organism-based; conditions: time 14.0 day
[3] = Acute toxicity in Wistar rat assessed as effect on lung appearance at 500 to 1000 mg/kg, po administered for 14 days by histopathological analysis; type: organism-based; conditions: in vivo, 336 h, dose 500-1000 mg/kg, time 14 day
[4] = target: Dual specificity tyrosine-phosphorylation-regulated kinase 1A (Homo sapiens, UniProt Q13627); test: Inhibition of Dyrk1A (unknown origin) incubated for 1 hrs in presence of [gamma-33P]-ATP by microplate scintillation counter based radiometric protein kinase assay
[5] = system: Rattus norvegicus; test: Reversal of amyloid beta (1 to 42 residues) induced cognitive impairment in Wistar rat assessed as reduction in neural dispersion at DG region in hippocampus at 2.5 to 10 mg/kg, po pretreated with amyloid beta for 7 days followed by compound administration for 9 days and measured after 5 days by Nissl's staining based analysis; type: functional, organism-based; conditions: dose 2.5-10 mg/kg, time 14.0 day
[6] = system: Rattus norvegicus; test: Reversal of amyloid beta (1 to 42 residues) induced cognitive impairment in Wistar rat assessed as reduction in escape latency time at 10 mg/kg, po pretreated with amyloid beta for 7 days followed by compound administration for 9 days and measured after 5 days by Morris water maze test; type: functional, organism-based; conditions: time 14.0 day
[7] = system: Rattus norvegicus; test: Antialzheimer activity against scopolamine-induced amnesia in male Wistar rat model assessed as increase in total arm enteries at 2.5 to 10 mg/kg, po preadministered with compound for 30 mins starting from 7 th day trail followed by scopolamine administration and measured after 5 mins by Y maze test; type: functional, organism-based; conditions: dose 2.5-10 mg/kg, time 35.0 min
[8] = target: Amyloid-beta precursor protein (Homo sapiens) (UniProt P05067); test: Inhibition of amyloid beta (1 to 42) (unknown origin) aggregation assessed as maximum peak height of aggregates incubated for 48 hrs by AFM analysis
[9] = system: Rattus norvegicus; test: Reversal of amyloid beta (1 to 42 residues) induced cognitive impairment in Wistar rat assessed as reduction in escape latency time at 10 mg/kg, po pretreated with amyloid beta for 7 days followed by compound administration for 9 days and measured after 1 days by Morris water maze test; type: functional, organism-based; conditions: time 10.0 day
[10] = target: Cholinesterase (Homo sapiens, UniProt P06276); test: Inhibition of human BChE using butyrylthiocholine iodide as substrate preincubated for 30 mins followed by substrate addition by DTNB based Ellman's colorimetric method
[11] = target: T1, Acetylcholinesterase (Homo sapiens, UniProt P22303); test: Inhibition of human erythrocyte AChE using acetylthiocholine iodide as substrate preincubated for 30 mins followed by substrate addition by DTNB based Ellman's colorimetric method
[12] = system: Drosophila; test: Neuroprotective activity in ey-GAL4>UAS-amyloid beta (1 to 42) induced cellular toxicity in Oregon R-positive Drosophila model assessed as rescue in eye phenotype at 20 uM by Stereo zoom microscopic imaging analysis relative to control; type: functional
[13] = Toxicity in wildtype Oregon R-positive Drosophila assessed as eclosion at 50 uM pretreated for 5 days and measured for 15 days relative to control; conditions: 480 h, time 20 day
[14] = Cmax in male Wistar rat at 10 mg/kg, po measured after 72 hrs by HPLC analysis; type: ADME, organism-based; conditions: in vivo
[15] = AUC (0 to 8 hrs) in male Wistar rat at 10 mg/kg, po measured after 72 hrs by HPLC analysis; type: ADME, organism-based; conditions: in vivo
[16] = system: Rattus norvegicus; test: Reversal of amyloid beta (1 to 42 residues) induced cognitive impairment in Wistar rat assessed as decrease in amyloid level in CA3 region of hippocampus at 10 mg/kg, po pretreated with amyloid beta for 7 days followed by compound administration for 9 days and measured after 5 days by immuno histochemical analysis; type: functional, organism-based; conditions: time 14.0 day
[17] = system: Rattus norvegicus; test: Reversal of amyloid beta (1 to 42 residues) induced cognitive impairment in Wistar rat assessed as decrease in amyloid level in DG region of hippocampus at 10 mg/kg, po pretreated with amyloid beta for 7 days followed by compound administration for 9 days and measured after 5 days by immuno histochemical analysis; type: functional, organism-based; conditions: time 14.0 day
[18] = Acute toxicity in Wistar rat assessed as effect on PCT shape at 500 to 1000 mg/kg, po administered for 14 days by histopathological analysis; type: organism-based; conditions: in vivo, 336 h, dose 500-1000 mg/kg, time 14 day
[19] = target: T1, Acetylcholinesterase; test: Mixed type non-competitive inhibition of human erythrocyte AChE using acetylthiocholine iodide as substrate assessed as decrease in Vmax with increase in Km at 0.25 to 0.75 uM by Lineweaver-burk plot analysis; conditions: dose 0.25-0.75 µM
[20] = Neurotoxicity in human SH-SY5Y cells assessed as reduction in cell population at 80 uM incubated for 24 hrs by MTT assay
[21] = target: Amyloid-beta precursor protein (Homo sapiens) (UniProt P05067); test: Inhibition of amyloid beta (1 to 42) (unknown origin) aggregation assessed as reduction in fluorescence intensity at 50 uM incubated for 48 hrs by confocal microscopic analysis
[22] = system: Hippocampus; test: Reversal of scopolamine-induced oxidative stress in male Wistar rat brain hippocampus assessed as decrease in MDA level at 2.5 to 10 mg/kg, po preadministered with compound for 30 mins starting from 7 th day trail followed by scopolamine administration and measured after 5 mins by TBARS assay; type: functional, organism-based; conditions: dose 2.5-10 mg/kg, time 35.0 min
[23] = Acute toxicity in Wistar rat assessed as effect on vacuole appearance in liver at 500 to 1000 mg/kg, po administered for 14 days by histopathological analysis; type: organism-based; conditions: in vivo, 336 h, dose 500-1000 mg/kg, time 14 day
[24] = system: Rattus norvegicus; test: Reversal of amyloid beta (1 to 42 residues) induced cognitive impairment in Wistar rat assessed as increase in platform crossings at 10 mg/kg, po pretreated with amyloid beta for 7 days followed by compound administration for 9 days and measured after 1 days by Morris water maze test; type: functional, organism-based; conditions: time 10.0 day
[25] = system: Rattus norvegicus; test: Reduction in AChE level in scopolamine-induced male Wistar rat brain hippocampus preadministered with compound orally for 30 mins starting from 7 th day trail followed by scopolamine administration and measured after 5 mins by Ellman's method; type: functional, tissue-based; conditions: dose 2.5-10 mg/kg, route po, time 35.0 min
[26] = system: Rattus norvegicus; test: Reversal of amyloid beta (1 to 42 residues) induced cognitive impairment in Wistar rat assessed as reduction in appearance of pyknotic neuron bodies in hippocampus at 2.5 to 10 mg/kg, po pretreated with amyloid beta for 7 days followed by compound administration for 9 days and measured after 5 days by Nissl's staining based analysis; type: functional, organism-based; conditions: dose 2.5-10 mg/kg, time 14.0 day
[27] = Acute toxicity in Wistar rat assessed as effect on glomerulus shape at 500 to 1000 mg/kg, po administered for 14 days by histopathological analysis; type: organism-based; conditions: in vivo, 336 h, dose 500-1000 mg/kg, time 14 day
[28] = Acute toxicity in Wistar rat assessed as effect on kidney appearance at 500 to 1000 mg/kg, po administered for 14 days by histopathological analysis; type: organism-based; conditions: in vivo, 336 h, dose 500-1000 mg/kg, time 14 day
[29] = system: Rattus norvegicus; test: Reversal of amyloid beta (1 to 42 residues) induced cognitive impairment in Wistar rat assessed as increase in platform crossings at 10 mg/kg, po pretreated with amyloid beta for 7 days followed by compound administration for 9 days and measured after 5 days by Morris water maze test; type: functional, organism-based; conditions: time 14.0 day

T1 sequence (P22303 whole entry, the tested form may be a part): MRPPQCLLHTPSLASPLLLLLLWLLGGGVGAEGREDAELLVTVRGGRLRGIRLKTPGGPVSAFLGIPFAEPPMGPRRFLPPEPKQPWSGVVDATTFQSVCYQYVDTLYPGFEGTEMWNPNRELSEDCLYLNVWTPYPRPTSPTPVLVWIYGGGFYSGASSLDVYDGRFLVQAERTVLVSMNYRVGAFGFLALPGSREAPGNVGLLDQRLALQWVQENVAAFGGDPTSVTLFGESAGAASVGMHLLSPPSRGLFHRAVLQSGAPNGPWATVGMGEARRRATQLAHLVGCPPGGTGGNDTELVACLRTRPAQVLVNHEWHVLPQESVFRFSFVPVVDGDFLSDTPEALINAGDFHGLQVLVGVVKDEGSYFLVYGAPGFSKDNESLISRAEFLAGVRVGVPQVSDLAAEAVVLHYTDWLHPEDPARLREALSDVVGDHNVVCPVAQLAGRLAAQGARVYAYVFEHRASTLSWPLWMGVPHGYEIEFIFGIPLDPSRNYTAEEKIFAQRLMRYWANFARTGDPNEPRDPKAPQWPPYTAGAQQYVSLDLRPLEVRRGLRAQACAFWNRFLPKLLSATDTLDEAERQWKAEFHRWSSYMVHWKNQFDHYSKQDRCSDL
Chain of Amyloid-beta precursor protein (Homo sapiens) (P05067 whole entry, the tested form may be a part): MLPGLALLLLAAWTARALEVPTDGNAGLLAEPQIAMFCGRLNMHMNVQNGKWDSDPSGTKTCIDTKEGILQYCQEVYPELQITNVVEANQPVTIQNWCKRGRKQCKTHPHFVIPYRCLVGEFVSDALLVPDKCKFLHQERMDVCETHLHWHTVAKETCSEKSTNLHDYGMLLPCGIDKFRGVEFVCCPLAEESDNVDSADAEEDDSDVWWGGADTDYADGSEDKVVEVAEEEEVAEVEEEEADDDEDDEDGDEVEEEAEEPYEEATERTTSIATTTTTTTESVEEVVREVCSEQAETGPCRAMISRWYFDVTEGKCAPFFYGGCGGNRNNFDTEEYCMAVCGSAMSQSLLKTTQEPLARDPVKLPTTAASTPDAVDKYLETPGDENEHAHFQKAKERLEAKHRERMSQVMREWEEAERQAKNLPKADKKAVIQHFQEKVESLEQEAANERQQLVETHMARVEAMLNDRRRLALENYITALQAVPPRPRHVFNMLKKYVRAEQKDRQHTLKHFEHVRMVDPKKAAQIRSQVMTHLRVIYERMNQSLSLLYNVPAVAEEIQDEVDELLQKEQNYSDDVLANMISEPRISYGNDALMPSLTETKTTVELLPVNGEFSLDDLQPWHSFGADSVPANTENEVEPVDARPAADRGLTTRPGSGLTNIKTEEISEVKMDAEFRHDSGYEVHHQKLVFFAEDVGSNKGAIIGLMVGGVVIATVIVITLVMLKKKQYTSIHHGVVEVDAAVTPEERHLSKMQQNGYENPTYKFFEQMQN
Chain of Cholinesterase (P06276 whole entry): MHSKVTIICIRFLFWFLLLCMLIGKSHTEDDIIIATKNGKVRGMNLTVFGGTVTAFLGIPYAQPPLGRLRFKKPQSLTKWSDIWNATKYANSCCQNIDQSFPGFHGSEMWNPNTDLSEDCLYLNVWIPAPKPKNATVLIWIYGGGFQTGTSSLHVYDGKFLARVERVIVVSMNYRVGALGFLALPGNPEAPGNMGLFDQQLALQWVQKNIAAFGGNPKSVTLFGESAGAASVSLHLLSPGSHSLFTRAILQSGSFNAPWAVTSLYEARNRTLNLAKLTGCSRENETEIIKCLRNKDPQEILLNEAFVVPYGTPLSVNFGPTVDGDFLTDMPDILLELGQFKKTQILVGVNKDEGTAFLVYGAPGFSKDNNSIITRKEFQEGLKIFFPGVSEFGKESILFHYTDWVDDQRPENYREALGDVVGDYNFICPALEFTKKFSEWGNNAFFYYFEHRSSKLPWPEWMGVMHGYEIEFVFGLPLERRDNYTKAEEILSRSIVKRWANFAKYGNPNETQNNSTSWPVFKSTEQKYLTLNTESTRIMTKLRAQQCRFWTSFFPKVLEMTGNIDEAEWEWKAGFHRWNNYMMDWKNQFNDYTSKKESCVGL

For COc1cc(NC(=O)Cn2nc(-c3ccccc3)c(-c3ccccc3)nc2=O)cc(OC)c1, the Activity [1] was “Non-Toxic”, the Activity [2] was “Active” and the Activity [3] was “Non-Toxic”. For the same molecule, the IC50 [4] was > 10 µM, the Activity [5] was “Active” and the Activity [6] was “Active”. The Activity [7] was “Active”, the Activity [8] was 253 nm and the Activity [9] was “inactive”. The IC50 [10] was > 10 µM, the IC50 [11] was 0.486 µM and the Activity [12] was 57%. The Activity [13] was 25%, the Cmax [14] was 355 ng/mL and the AUC(0-t) at 72 h [15] was 1140 ng·h/mL. The Activity [16] was “Active”, the Activity [17] was “Active” and the Activity [18] was “Non-Toxic”. The inhibition [19] was “Active”, the Activity [20] was “Non-Toxic” and the inhibition [21] was “Active”. For the same molecule, the Activity [22] was “Active”, the Activity [23] was “Non-Toxic” and the Activity [24] was “inactive”. The Activity [25] was “Dose-Dependent Effect”, the Activity [26] was “Active” and the Activity [27] was “Non-Toxic”. For the same molecule, the Activity [28] was “Non-Toxic” and the Activity [29] was “Active”.
